Test results as given in patent publication US8088804B2, “N-hydroxyamide derivatives possessing antibacterial activity” (Pfizer Inc., priority 2005, dated 2012).
≈ marks a conversion by molar mass, not a printed value. Where two headings read alike, the source gives them in different places.

Assays:
H. influen. = test: Susceptibility testing (MIC, CLSI microdilution); format: cell-based, Haemophilus influenzae; conditions: 20 h at 35° C., unit assumed
Method: (§1) Compounds were tested following the microdilution method of CLSI (Clinical and Laboratory Standards Institute. Methods for dilution antimicrobial susceptibility tests for bacteria that grow aerobically; Approved standard—sixth edition. CLSI document M7-A5, CLSI, Wayne, Pa. 2003). Assays were performed in sterile plastic 96-well microtiter trays with round bottom wells (Greiner).
(§2) Stock solutions of test compounds and control antibiotics were prepared at 10 mg/ml in DMSO. Serial 2-fold dilutions of each drug were performed in a microtiter plate across each row using DMSO as solvent at 100-fold the desired final concentration. Wells in columns #1-11 contain drug and column #12 was kept as a growth control for the organism with no drug. Each well in the mother plate was diluted with sterile deionized water and DMSO, mixed, and volumes of 10 μl distributed to each well in the resulting assay plates.
(§3) Stock cultures were prepared using the Microbank™ method (Pro-Lab Diagnostics) and stored at −80° C. To propagate each strain, one bead was removed from the frozen vial and aseptically streaked onto Trypticase Soy Agar (Difco) which were incubated at 35° C. Standardized inocula were prepared using the direct colony suspension method according to CLSI guidelines (Clinical and Laboratory Standards Institute. Methods for dilution antimicrobial susceptibility tests for bacteria that grow aerobically; Approved standard—sixth edition. CLSI document M7-A5, CLSI, Wayne, Pa., 2003). Isolated colonies were selected from an 18-24 hr agar plate and resuspended in 0.9% sterile saline to match a 0.5 McFarland turbidity standard using a calorimeter (Vitek) at 80% of transmitance. The suspension was used within 15 minutes of preparation.
(§4) Mueller-Hinton Broth (MHB) (Difco) was prepared at a 1.1× concentration and supplemented with Ca++ and Mg++ as recommended by CLSI. For each organism, the standardized suspension was diluted 1:180 into appropriate growth medium in a sterile reservoir. After mixing, wells in the drug-containing assay plates were inoculated with a volume of 90 μl. Thus, for each minimum inhibitory concentration (MIC) determination, each well contains a final volume of 100 μl with an inoculum size of approximately 5×10^5 colony forming units (cfu)/ml and no more than 1% DMSO.
(§5) The completed microtiter plates were incubated 20 h at 35° C. in ambient air. Optical density of each well was determined at 600 nm using a VersaMax Microplate reader (Molecular Devices, Sunnyvale, Calif.). The MIC was defined as the lowest drug concentration causing complete suppression of visible bacterial growth.

K. pneu. = test: Susceptibility testing (MIC, CLSI microdilution); format: cell-based, Klebsiella pneumoniae; conditions: 20 h at 35° C., unit assumed
Method: as §1, §2, §3, §4, §5

P. aerug. Hypersuc = test: Susceptibility testing (MIC, CLSI microdilution); format: cell-based, Pseudomonas aeruginosa; conditions: 20 h at 35° C., Δ efflux, hypersusceptible strain, unit assumed
Method: as §1, §2, §3, §4, §5

P. aerug. (2) = test: Susceptibility testing (MIC, CLSI microdilution); format: cell-based, Pseudomonas aeruginosa; conditions: 20 h at 35° C., in µg/mL (unit assumed)
Method: as §1, §2, §3, §4, §5

E. coli (2) = test: Susceptibility testing (MIC, CLSI microdilution); format: cell-based, Escherichia coli; conditions: 20 h at 35° C., in µg/mL (unit assumed)
Method: as §1, §2, §3, §4, §5

E. coli tolC = test: Susceptibility testing (MIC, CLSI microdilution); format: cell-based, Escherichia coli; conditions: 20 h at 35° C., unit assumed
Method: as §1, §2, §3, §4, §5

P. ae LpxC enzyme = P. ae LpxC enzyme (Pseudomonas aeruginosa, UniProt P47205); test: Enzyme inhibition testing (fluorescamine assay); format: biochemical; conditions: for inhibition at 0.5 µg/mL: @0.5 μg/ml; for inhibition at 10 µg/mL: @10 μg/ml
Chain of P. ae LpxC enzyme (P47205 whole entry): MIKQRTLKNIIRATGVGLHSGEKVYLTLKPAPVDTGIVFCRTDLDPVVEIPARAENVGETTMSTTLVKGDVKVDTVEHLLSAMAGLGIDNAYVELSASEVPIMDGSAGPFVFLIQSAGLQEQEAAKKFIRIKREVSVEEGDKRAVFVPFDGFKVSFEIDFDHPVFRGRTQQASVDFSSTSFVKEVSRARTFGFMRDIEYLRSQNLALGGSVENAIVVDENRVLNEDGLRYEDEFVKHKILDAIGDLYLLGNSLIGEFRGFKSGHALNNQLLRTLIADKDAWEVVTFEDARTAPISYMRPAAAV
Method: Compounds were tested based on a published method (Wang W., 2001, Anal Biochem, 290, 338-46) with modifications. Enzyme assays were performed in the assay buffer (50 mM HEPES, pH8, 0.005% Brij, 50 μM ZnSO4, 1 mg/ml BSA) in 96-well V-bottom microtiter plates.
Stock solutions of test compounds and control antibiotics are prepared at 10 mg/ml in DMSO and are diluted in the assay buffer to 6-fold the final testing concentration. 5 μl compound dilution is distributed to the well of the assay plate. EDTA is used as positive control and the final concentration in assay is 12.5 mM.
P. ae LpxC enzyme dilution in the assay buffer is added to the compound in plate and pre-incubated with the compound at room temperature for 10 min. LpxC substrate is added to initiate the enzyme reaction and the final enzyme and substrate concentrations are 1.2 μM and 0.4 mM, respectively. The reaction continues at RT for 4 hrs before diluted with 45 μl of Borate buffer (0.4 M, pH9), followed by addition of 40 μl derivatization reagent (fluorescamine 2 mg/ml DMF). This mixture is incubated at RT for 10 min followed by addition of 150 μl DMF/H2O (1:1). The resulting solution is loaded onto Millipore filter unit (Microcon 10 k MWCO) and spun at 13 k rpm on bench top centrifuge for 15 min. 100 μl of this filtrate is transferred to a low fluorescence clear-bottom 96-well plate (Corning) and the fluorescence is detected at ex360 nm and em465 nm on a Tecan fluorescence plate reader. The percent inhibition is calculated based on EDTA produces 100% inhibition and negative control produces 100% activity.

[1] = @0.1 μg/ml, read-out: ENZYME (percent inhibition)
[2] = read-out: ENZYME (percent inhibition)

Row | SMILES | MIC H. influen. (H. influen.) | MIC K. pneu. (K. pneu.) | MIC P. aerug. Hypersuc (P. aerug. Hypersuc) | MIC P. aerug. (2) (P. aerug. (2)) | MIC E. coli (2) (E. coli (2)) | MIC E. coli tolC (E. coli tolC) | inhibition at 0.1 µg/mL (P. ae LpxC enzyme; [1]) | inhibition at 0.5 µg/mL (P. ae LpxC enzyme; [2]) | inhibition at 10 µg/mL (P. ae LpxC enzyme; [2]) | inhibition at 0.1 µg/mL (P. ae LpxC enzyme; read-out: ENZYME (percent inhibition), @0.1 μg/ml) | inhibition at 1 µg/mL (P. ae LpxC enzyme; @1 μg/ml, read-out: ENZYME (percent inhibition))
1 | CCCc1ccc(-c2ccc(C(=O)NC(C(=O)NO)C(F)(F)F)cc2)cc1 (racemic) [Compound 20, DL-4′-Propyl-biphenyl-4-carboxylic acid (2,2,2-trifluoro-1-hydroxycarbamoyl-ethyl)-amide] | 0.25 µg/mL (≈ 0.657 µM) | 0.5 µg/mL (≈ 1.31 µM) | 1 µg/mL (≈ 2.63 µM) | 16 | 0.5 | 0.25 µg/mL (≈ 0.657 µM) | < 10% | – | – | – | –
2 | CCCc1ccc(-c2ccc(C(=O)NC(CF)C(=O)NO)cc2)cc1 (racemic) [Compound 21, DL-4′-Propyl-biphenyl-4-carboxylic acid (2-fluoro-1-hydroxycarbamoyl-ethyl)-amide] | 8 µg/mL (≈ 23.2 µM) | 8 µg/mL (≈ 23.2 µM) | 16 µg/mL (≈ 46.5 µM) | >64 | 16-32 | 4 µg/mL (≈ 11.6 µM) | – | 77% | – | – | –
3 | CCOc1ccc(-c2ccc(C(=O)NC(C(=O)NO)C(F)(F)F)cc2)cc1 (racemic) [Compound 22, DL-4′-Ethoxy-biphenyl-4-carboxylic acid (2,2,2-trifluoro-1-hydroxycarbamoyl-ethyl)-amide] | 0.5 µg/mL (≈ 1.31 µM) | 1 µg/mL (≈ 2.62 µM) | 0.5 µg/mL (≈ 1.31 µM) | 16-32 | 2 | 0.25 µg/mL (≈ 0.654 µM) | < 10% | – | – | – | –
4 | O=C(NC(C(=O)NO)C(F)(F)F)c1ccc(-c2cc(F)cc(F)c2)cc1 (racemic) [Compound 23, DL-3′,5′-Difluoro-biphenyl-4-carboxylic acid (2,2,2-trifluoro-1-hydroxycarbamoyl-ethyl)-amide] | 16 µg/mL (≈ 42.8 µM) | 16 µg/mL (≈ 42.8 µM) | 2 µg/mL (≈ 5.34 µM) | 8 | 16 | 8 µg/mL (≈ 21.4 µM) | 24% | – | – | – | –
5 | O=C(NC(C(=O)NO)C(F)(F)F)c1ccc(-c2ccsc2)cc1 (racemic) [Compound 24, DL-4-Thiophen-3-yl-N-(2,2,2-trifluoro-1-hydroxycarbamoyl-ethyl)-benzamide] | 8 µg/mL (≈ 23.2 µM) | > 64 µg/mL | 2 µg/mL (≈ 5.81 µM) | 32 | >64 | 16 µg/mL (≈ 46.5 µM) | 13% | – | – | – | –
6 | O=C(NC(C(=O)NO)C(F)(F)F)c1ccc(-c2ccc(F)cc2)cc1 (racemic) [Compound 25, DL-4′-Fluoro-N-(1,1,1-trifluoro-3-(hydroxyamino)-3-oxopropan-2-yl)biphenyl-4-carboxamide] | 4 µg/mL (≈ 11.2 µM) | 16 µg/mL (≈ 44.9 µM) | 2 µg/mL (≈ 5.61 µM) | 8-16 | 8 | 4 µg/mL (≈ 11.2 µM) | 12% | – | – | – | –
7 | CCCc1ccc(-c2ccc(C(=O)N3CS(=O)(=O)CC3C(=O)NO)cc2)cc1 (stereo in doubt) [Compound 17, (S)-N-Hydroxy-3-(4′-propylbiphenylcarbonyl)thiazolidine-sulfone-4-carboxamide] | > 64 µg/mL | 16 µg/mL (≈ 39.8 µM) | 2 µg/mL (≈ 4.97 µM) | 16 | – | 8 µg/mL (≈ 19.9 µM) | – | 98% | – | – | –
8 | CCCc1ccc(-c2ccc(C(=O)NC(CSC)C(=O)NO)cc2)cc1 (stereo in doubt) [Compound 28, (S)-N-(1-(Hydroxyamino)-3-(methylthio)-1-oxopropan-2-yl)-4′-propylbiphenyl-4-carboxamide] | > 64 µg/mL | > 64 µg/mL | > 64 µg/mL | >64 | >64 | 32 µg/mL (≈ 85.9 µM) | 13% | – | – | – | –
9 | CCCc1ccc(-c2ccc(C(=O)NC(CS(C)(=O)=O)C(=O)NO)cc2)cc1 (stereo in doubt) [Compound 29, (S)-N-(1-(Hydroxyamino)-3-(methylsulfone)-1-oxopropan-2-yl)-4′-propylbiphenyl-4-carboxamide] | > 64 µg/mL | 4 µg/mL (≈ 9.89 µM) | 32 µg/mL (≈ 79.1 µM) | >64 | >64 | ≤ 0.06 µg/mL | 59% | – | – | – | –
10 | CCCc1ccc(-c2ccc(C(=O)N3CC[C@H](N=[N+]=[N-])[C@H]3C(=O)NO)cc2)cc1 [Compound 1, (2S,3S)-3-Azido-N-hydroxy-1-(4′-propylbiphenylcarbonyl)pyrrolidine-2-carboxamide] | > 64 µg/mL | > 64 µg/mL | > 64 µg/mL | >64 | >64 | 32 µg/mL (≈ 81.3 µM) | – | 35% | – | – | –
11 | CCCc1ccc(-c2ccc(C(=O)N3CC[C@H](N)[C@H]3C(=O)NO)cc2)cc1 [Compound 2] | 16 µg/mL (≈ 43.5 µM) | 64 µg/mL (≈ 174 µM) | 64 µg/mL (≈ 174 µM) | – | 64 | 32 µg/mL (≈ 87.1 µM) | – | 65% | – | – | –
12 | CCCc1ccc(-c2ccc(C(=O)N3CC[C@H](NS(C)(=O)=O)[C@H]3C(=O)NO)cc2)cc1 [Compound 3, (2S,3S)-N-Hydroxy-3-(methylsulfonamido)-1-(4′-propylbiphenylcarbonyl)pyrrolidine-2-carboxamide] | > 64 µg/mL | > 64 µg/mL | > 64 µg/mL | >64 | >64 | 32 µg/mL (≈ 71.8 µM) | – | 55% | – | – | –
13 | CCCc1ccc(-c2ccc(C(=O)N3CC[C@H](OC)[C@H]3C(=O)NO)cc2)cc1 [Compound 7] | > 64 µg/mL | 64 µg/mL (≈ 167 µM) | 64 µg/mL (≈ 167 µM) | >64 | – | 64 µg/mL (≈ 167 µM) | – | – | 84% | – | –
14 | CCCc1ccc(-c2ccc(C(=O)N3C[C@H](N)[C@@H](O)[C@H]3C(=O)NO)cc2)cc1 [Compound 12] | 32 µg/mL (≈ 83.5 µM) | > 64 µg/mL | 8 µg/mL (≈ 20.9 µM) | – | >64 | > 64 µg/mL | – | 95% | – | – | –
15 | O=C(NO)c1cocc1C(=O)Nc1cccc(SC(F)(F)F)c1 [Compound 32] | > 64 µg/mL | > 64 µg/mL | > 64 µg/mL | >64 | – | 64 µg/mL (≈ 185 µM) | – | – | < 10% | – | –
16 | O=C(NO)[C@H]1N(C(=O)c2ccc(-c3cc(F)cc(F)c3)cc2)CCS1(=O)=O [Compound 36, (S)-3-(3′,5′-Difluorobiphenylcarbonyl)-N-hydroxythiazolidinesulfone-2-carboxamide] | > 64 µg/mL | > 64 µg/mL | 8 µg/mL (≈ 20.2 µM) | – | >64 | 0.125 µg/mL (≈ 0.315 µM) | – | – | – | 8% | –
17 | CCCc1ccc(-c2ccc(C(=O)N3CC[C@@H](O)[C@H]3C(=O)NO)cc2)cc1 [Compound 39] | > 64 µg/mL | > 64 µg/mL | 4 µg/mL (≈ 10.9 µM) | – | >64 | 64 µg/mL (≈ 174 µM) | – | – | – | – | 95.2%
